Experimental data from patent US20210317140A1, “Heterocyclic Compounds and Methods of Use” (MEDIVATION TECHNOLOGIES, INC, priority 2013, published 2021).

Columns and labels:
PI3Kα = biological target: T1, PI3Kα (Homo sapiens, UniProt P42336); assay: PI3Kα isoform profiling (PI3Kδ protocol); assay type: biochemical; details: 0.3 μM compound
T1 construct: purchased Reaction Biology Corporation
From the text: PI3Kδ assay: The PIP3 product is detected by displacement of biotin-PIP3 from an energy transfer complex consisting of Europium labeled anti-GST monoclonal antibody, a GST-tagged pleckstrin homology (PH) domain, biotinylated PIP3 and Streptavidin-Allophycocyanin (APC). Excitation of Europium in the complex results in an energy transfer to the APC and a fluorescent emission at 665 nm. The PIP3 product formed by PI 3-Kinase(h) activity displaces biotin-PIP3 from the complex resulting in a loss of energy transfer and thus a decrease in signal. This is a 3-step reaction: First, the kinase reaction with PIP2 substrate is carried out in the presence of ATP (10 μM), and the reaction is quenched with stop Solution, and then finally detect by adding Detection Mixture followed by incubation (10 min). Reaction procedure: 1) Prepare substrate in freshly prepared Reaction Buffer. 2) Deliver kinase into the substrate solution and gently mix. 3) Deliver compounds in 100% DMSO (1 μM) into the kinase reaction mixture by Acoustic technology (Echo550; nanoliter range), incubate for 10 min at RT. 4) Deliver ATP into the reaction mixture to initiate the reaction. 5) Incubate for 30 min at 30° C. 6) Quench the reaction with Stop Solution. 7) Add Detection Mixture, and incubate for overnight. 8) Measure HTRF: Ex=320 nm, ratio of Em=615 nm and Em=665 nm. The emission ratio is converted into μM PIP3 production based on PIP3 standard curves. The nonlinear regression to obtain the standard curve and IC50 values are performed using Graphpad Prism software. Assay Buffer: HEPES 50 mM (pH7.0), NaN3 0.02%, BSA 0.01%, Orthovanadate 0.1 mM, 1% DMSO. Detection buffer: HEPES 10 mM (pH7.0), BSA 0.02%, KF 0.16 M, EDTA 4 mM. Substrate: 10 μM PIP2 substrate (PI(4,5)P2).
Compounds of the invention were profiled in a 10 dose IC50 panel against PI3Kα, PI3Kβ, and PI3Kγ kinases, provided by Reaction Biology Corporation, applied to the PI3Kδ protocol provided in Example B1.

TEC = biological target: T2, TEC (Homo sapiens, UniProt P42680); assay: TEC kinase profiling (BTK protocol); assay type: biochemical; details: 0.3 μM compound
T2 construct: purchased Reaction Biology Corporation
T2 sequence (P42680 1-631): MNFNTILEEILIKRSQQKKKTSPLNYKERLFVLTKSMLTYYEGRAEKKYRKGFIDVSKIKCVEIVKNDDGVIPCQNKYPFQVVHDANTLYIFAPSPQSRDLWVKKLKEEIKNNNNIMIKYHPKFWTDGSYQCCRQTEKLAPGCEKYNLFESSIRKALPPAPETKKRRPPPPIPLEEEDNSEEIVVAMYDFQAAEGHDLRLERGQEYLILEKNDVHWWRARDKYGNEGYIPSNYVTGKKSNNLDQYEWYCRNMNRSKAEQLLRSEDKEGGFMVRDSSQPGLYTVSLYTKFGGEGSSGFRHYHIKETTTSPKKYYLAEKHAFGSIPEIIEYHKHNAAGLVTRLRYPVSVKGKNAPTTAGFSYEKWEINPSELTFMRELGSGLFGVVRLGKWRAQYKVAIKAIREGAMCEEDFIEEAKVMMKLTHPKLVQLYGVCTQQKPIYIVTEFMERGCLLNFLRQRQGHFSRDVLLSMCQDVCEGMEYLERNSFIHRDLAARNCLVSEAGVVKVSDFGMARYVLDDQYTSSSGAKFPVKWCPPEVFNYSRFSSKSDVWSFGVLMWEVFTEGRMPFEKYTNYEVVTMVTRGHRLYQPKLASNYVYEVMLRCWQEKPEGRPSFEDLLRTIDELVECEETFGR
Procedure: (§1) BTK assay: In vitro profiling protein kinases was performed using the “HotSpot” assay platform. Briefly, specific kinase/substrate pairs along with required cofactors were prepared in reaction buffer. Compounds were prepared as 10 mM stock solutions in DMSO. Compounds were delivered into the reaction, followed 15-20 minutes later by addition of a mixture of ATP (Sigma, St. Louis Mo.) and ^33P ATP (Perkin Elmer, Waltham Mass.) to a final concentration of 10 μM. […] IC50 values and curve fits were obtained using Prism (GraphPad Software). Buffer Conditions: 20 mM Hepes (pH 7.5), 10 mM MgCl2, 1 mM EGTA, 0.02% Brij35, 0.02 mg/mL BSA, 0.1 mM Na3VO4, 2 mM DTT, 1% DMSO.

BTK = biological target: T3, BTK (Homo sapiens, UniProt Q06187); assay: BTK kinase assay (HotSpot, 33P ATP); assay type: biochemical; details: for BTK @ 0.1 μM (% Inh): 0.1 μM compound; for IC50: 10 dose IC50, 10 μM ATP
T3 construct: purchased Reaction Biology Corporation
T3 sequence (Q06187 whole entry): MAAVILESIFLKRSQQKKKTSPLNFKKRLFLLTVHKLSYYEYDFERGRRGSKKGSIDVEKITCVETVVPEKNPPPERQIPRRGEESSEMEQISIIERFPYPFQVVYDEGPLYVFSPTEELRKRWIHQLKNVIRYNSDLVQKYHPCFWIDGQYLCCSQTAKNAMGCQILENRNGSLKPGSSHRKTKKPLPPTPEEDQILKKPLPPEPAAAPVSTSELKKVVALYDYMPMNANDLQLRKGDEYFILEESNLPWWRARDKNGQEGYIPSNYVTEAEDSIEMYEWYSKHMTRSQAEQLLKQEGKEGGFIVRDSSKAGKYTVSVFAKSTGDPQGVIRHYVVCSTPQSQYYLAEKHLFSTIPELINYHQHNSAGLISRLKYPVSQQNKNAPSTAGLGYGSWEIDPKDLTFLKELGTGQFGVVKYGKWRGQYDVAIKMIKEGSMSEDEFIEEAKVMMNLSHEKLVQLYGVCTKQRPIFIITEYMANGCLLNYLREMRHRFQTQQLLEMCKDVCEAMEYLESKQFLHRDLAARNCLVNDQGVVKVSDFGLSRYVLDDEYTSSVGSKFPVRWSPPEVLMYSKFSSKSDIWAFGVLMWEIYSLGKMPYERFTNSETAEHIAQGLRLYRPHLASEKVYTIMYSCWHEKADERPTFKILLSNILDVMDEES
In short: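 In 20 mM Hepes (pH 7.5) with 10 mM MgCl2, 1 mM EGTA, 0.1 mM Na3VO4, 2 mM DTT, 0.02% Brij35, 0.02 mg/mL BSA and 1% DMSO, kinase and substrate were exposed to ten compound doses for 15–20 min.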

ITK = biological target: T4, ITK (Homo sapiens, UniProt Q08881); assay: ITK kinase profiling (BTK protocol); assay type: biochemical; details: 0.3 μM compound
T4 construct: purchased Reaction Biology Corporation
T4 sequence (Q08881 1-620): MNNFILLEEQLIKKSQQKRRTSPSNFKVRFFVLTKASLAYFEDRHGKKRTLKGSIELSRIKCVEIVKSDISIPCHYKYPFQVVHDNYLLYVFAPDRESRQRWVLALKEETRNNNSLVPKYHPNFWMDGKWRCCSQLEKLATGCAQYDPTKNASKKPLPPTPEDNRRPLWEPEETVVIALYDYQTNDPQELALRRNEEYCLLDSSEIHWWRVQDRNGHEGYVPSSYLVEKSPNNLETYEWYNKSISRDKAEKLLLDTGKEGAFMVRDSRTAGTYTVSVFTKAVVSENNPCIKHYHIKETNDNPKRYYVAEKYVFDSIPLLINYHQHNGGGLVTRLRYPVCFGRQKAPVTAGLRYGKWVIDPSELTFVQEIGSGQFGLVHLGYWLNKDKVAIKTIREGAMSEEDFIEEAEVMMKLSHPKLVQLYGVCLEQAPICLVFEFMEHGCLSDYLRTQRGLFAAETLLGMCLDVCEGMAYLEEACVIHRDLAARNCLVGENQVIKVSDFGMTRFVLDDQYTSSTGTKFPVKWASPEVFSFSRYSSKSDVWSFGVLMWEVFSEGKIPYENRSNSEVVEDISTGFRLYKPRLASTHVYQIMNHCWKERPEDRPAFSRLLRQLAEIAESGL
Procedure: as §1

CD69+B220+ cells = assay: B cell activation assay (IgD-stimulated splenocytes, CD69+B220+ cells by FACS); assay type: cell-based; details: mouse splenocytes, IgD 3 μg/mL, 4 h; for CD69 @ 100 nM (% Inh): 100 nM compound
Procedure: 1 Female mouse approximately 2 months old was euthanized with CO2 and the spleen removed. The tissue was homogenized with a polished glass microscope slide. The cells were collected in 5 mL complete medium (RPMI+10% FBS+pen/strep), placed in a 15 mL falcon tube and centrifuged at 500×g for 5 min. The supernatant was discarded and the pellet was resuspended in 3 mL of ACK lysis buffer (NH4Cl 0.17M, KHCO3 10 mM, EDTA-Na2 0.1 mM, pH 7.2), incubated at 37° C. for 5 min. 2 mL complete medium was added and the mixture centrifuged at 500×g for 5 min. The supernatant was discarded and the pellet resuspended in 1 mL complete medium. The mixture was passed through a […] cell strainer and collect in 50 mL falcon tube. Enough medium was added to have a total of 10 mL. The cells were counted and seeded in 24 or 48-well plate in 1 mL complete medium at 10^6 cells/mL. The plate was placed in a 37° C. incubator for 15 min. The cells were treated for 30 min at 37° C. with 100 nM test compound dissolved in 100% DMSO. 3 μL IgD (Accurate chemical and scientific corp.) was added at a final concentration of 3 μg/mL and the mixture incubated at 37° C. for 4 h. The cells were collected in 1.5 mL eppendorf tubes, centrifuged at 500×g for 5 min and then resuspended in 100 μL of PBS+2% FBS. The following antibodies were added: α-B220 PE (pharmingen #553090), α-CD69 APC (pharmingen #60689), live/dead fixable aqua dead cell stain kit (life technologies #L34957) all at 1:300, and the mixture incubated for 15 min at 4° C. in the dark. To this was added 900 μL of PBS+2% FBS and the mixture centrifuged at 500×g for 5 min. The supernatant was removed and the pellet resuspended in 300 μL of PBS+2% FBS and mixed well. The mixture was transferred to a cytometer tube. The samples were run in the FACS Canto II cytometer and quantified by the number of CD69+B220+ cells as a percentage of the total number of B220+ alive cells.

PI3Kδ = biological target: T5, PI3Kδ (Homo sapiens, UniProt O00329); assay: PI3Kδ kinase assay (HTRF, PIP3 detection); assay type: biochemical; details: 10 μM ATP; for PI3Kδ @ 0.1 μM (% Inh): 0.1 μM compound
T5 construct: purchased Reaction Biology Corporation
T5 sequence (O00329 whole entry): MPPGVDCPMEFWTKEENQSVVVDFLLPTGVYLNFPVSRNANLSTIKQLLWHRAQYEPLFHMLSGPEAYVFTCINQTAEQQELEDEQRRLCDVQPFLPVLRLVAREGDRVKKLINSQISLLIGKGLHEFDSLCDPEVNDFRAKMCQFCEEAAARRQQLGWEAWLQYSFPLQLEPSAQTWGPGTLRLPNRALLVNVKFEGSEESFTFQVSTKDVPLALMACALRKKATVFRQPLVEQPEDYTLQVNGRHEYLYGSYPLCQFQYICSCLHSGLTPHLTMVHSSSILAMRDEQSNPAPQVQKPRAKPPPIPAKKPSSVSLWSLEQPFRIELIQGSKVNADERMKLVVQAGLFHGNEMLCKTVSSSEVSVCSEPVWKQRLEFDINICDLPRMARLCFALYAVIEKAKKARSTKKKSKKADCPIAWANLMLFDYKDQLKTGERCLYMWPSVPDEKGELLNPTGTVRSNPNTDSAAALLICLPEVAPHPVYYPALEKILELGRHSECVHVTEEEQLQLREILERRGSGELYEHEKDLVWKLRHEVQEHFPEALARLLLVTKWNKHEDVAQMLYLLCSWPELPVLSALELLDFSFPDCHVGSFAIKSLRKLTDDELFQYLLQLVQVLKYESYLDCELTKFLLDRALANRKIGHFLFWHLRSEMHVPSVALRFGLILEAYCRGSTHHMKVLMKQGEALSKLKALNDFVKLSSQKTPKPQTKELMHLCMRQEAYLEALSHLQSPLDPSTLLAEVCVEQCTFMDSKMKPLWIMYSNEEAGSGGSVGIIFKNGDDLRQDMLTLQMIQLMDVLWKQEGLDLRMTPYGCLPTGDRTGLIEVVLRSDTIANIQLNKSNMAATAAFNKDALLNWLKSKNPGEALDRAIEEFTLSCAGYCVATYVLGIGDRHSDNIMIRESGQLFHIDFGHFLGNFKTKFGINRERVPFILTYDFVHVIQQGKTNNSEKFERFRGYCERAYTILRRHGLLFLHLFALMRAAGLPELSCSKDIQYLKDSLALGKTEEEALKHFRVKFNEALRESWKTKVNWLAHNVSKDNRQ
T5 sequence (P27986 whole entry partner): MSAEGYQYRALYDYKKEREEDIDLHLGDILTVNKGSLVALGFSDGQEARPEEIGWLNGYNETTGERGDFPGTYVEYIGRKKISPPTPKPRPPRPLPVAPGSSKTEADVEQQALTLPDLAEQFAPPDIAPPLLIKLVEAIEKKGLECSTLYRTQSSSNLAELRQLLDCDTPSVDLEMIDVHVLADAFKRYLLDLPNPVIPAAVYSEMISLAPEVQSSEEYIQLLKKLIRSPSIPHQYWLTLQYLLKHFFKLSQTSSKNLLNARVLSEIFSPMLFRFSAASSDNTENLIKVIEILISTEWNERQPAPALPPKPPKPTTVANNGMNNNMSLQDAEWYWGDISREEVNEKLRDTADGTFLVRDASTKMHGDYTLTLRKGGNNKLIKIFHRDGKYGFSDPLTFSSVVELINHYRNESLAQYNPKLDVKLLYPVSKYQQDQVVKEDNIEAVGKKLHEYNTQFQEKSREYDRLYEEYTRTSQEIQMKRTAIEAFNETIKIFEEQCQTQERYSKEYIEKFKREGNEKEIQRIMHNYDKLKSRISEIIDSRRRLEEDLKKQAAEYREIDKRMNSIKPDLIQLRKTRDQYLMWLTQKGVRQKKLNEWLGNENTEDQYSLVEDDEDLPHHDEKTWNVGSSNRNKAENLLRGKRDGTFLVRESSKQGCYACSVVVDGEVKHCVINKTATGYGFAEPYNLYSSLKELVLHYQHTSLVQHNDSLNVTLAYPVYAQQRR
In short: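 10-dose HTRF assay; kinase preincubated with compound 10 min at RT, then reacted with 10 μM PIP2 and 10 μM ATP for 30 min at 30 °C in HEPES pH 7.0 buffer. PIP3 product displaces biotin-PIP3 from the Eu/APC complex; signal converted to PIP3 via standard curve, IC50 by nonlinear regression.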

T1 sequence (P42336 whole entry, canonical isoform): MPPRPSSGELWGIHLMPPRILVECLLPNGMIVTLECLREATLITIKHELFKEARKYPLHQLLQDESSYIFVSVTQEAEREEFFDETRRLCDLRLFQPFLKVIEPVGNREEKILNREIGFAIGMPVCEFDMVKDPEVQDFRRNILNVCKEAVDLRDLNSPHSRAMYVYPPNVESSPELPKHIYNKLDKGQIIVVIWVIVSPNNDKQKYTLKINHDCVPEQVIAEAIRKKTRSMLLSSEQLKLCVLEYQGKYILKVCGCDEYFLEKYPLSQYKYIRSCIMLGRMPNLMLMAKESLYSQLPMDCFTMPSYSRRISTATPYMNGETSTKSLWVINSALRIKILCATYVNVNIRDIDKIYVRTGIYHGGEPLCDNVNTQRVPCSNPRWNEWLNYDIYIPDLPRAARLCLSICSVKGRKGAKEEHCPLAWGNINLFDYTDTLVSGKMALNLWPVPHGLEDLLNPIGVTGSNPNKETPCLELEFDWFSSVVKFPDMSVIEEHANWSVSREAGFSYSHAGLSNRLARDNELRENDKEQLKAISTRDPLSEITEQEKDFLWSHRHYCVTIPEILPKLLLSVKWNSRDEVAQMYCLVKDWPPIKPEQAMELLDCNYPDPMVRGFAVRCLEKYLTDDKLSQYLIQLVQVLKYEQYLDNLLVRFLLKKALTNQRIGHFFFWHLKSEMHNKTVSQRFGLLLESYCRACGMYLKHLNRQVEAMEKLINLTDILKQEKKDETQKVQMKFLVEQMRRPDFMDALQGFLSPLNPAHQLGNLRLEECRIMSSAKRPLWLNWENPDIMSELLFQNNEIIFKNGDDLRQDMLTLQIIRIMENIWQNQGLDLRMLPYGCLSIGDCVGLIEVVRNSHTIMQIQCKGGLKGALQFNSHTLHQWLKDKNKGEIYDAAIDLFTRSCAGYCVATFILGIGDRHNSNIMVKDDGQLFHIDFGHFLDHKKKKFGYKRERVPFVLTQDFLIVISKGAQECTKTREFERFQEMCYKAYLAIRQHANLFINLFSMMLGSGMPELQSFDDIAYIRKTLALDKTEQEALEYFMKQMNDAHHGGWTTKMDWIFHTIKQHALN
T1 sequence (P27986 whole entry partner, canonical isoform): as the sequence (P27986 whole entry partner) above

Compound	PI3Kα @ 0.3 μM (% Inh) (PI3Kα)	TEC @ 0.3 μM (% Inh) (TEC)	BTK @ 0.1 μM (% Inh) (BTK; 10 μM ATP)	IC50 (BTK) [nM]	ITK @ 0.3 μM (% Inh) (ITK)	CD69 @ 100 nM (% Inh) (CD69+B220+ cells)	BTK @ 0.01 μM (% Inh) (BTK; 0.01 μM compound, 10 μM ATP)	IC50 (CD69+B220+ cells; Splenocyte) [nM]	PI3Kδ @ 0.01 μM (% Inh) (PI3Kδ; 0.01 μM compound)	PI3Kδ @ 0.1 μM (% Inh) (PI3Kδ)
Nc1ncnc2c1c(-c1ccc(Br)c(O)c1)nn2C1CCc2ccccc2C1 (stereo not shown) [compound 8, 5-(4-amino-1-(1,2,3,4-tetrahydronaphthalen-2-yl)-1H-pyrazolo[3,4-d]pyrimidin-3-yl)-2-bromophenol]	76.76	20.18	48.87	26.1	0.02	–	–	–	–	–
COc1ccc(-c2nn(C3CCc4ccccc4C3)c3ncnc(N)c23)cc1OC (racemic) [compound 17, 3-(3,4-dimethoxyphenyl)-1-(1,2,3,4-tetrahydronaphthalen-2-yl)-1H-pyrazolo[3,4-d]pyrimidin-4-amine]	–	11.45	41.16	164	−0.36	33.56 ± 13.70 (n = 5) % Inh	–	–	–	–
NC(=O)c1ccc(-c2nn(C3Cc4ccccc4C3)c3ncnc(N)c23)cc1O [compound 111, 4-[4-amino-1-(2,3-dihydro-1H-inden-2-yl)-1H-pyrazolo[3,4-d]pyrimidin-3-yl]-2-hydroxybenzamide]	–	–	17.47	–	–	57.39 ± 5.05 (n = 3) % Inh	6.49	118 ± 11.1	64.38	91.28
Nc1ncnc2c1c(-c1cc(O)cc(F)c1)nn2C1CCc2cc(F)ccc21 (stereo not shown) [compound 42, 3-[4-amino-1-(5-fluoro-2,3-dihydro-1H-inden-1-yl)-1H-pyrazolo[3,4-d]pyrimidin-3-yl]-5-fluorophenol]	–	–	23.06	–	–	22.71 ± 5.53 (n = 3) % Inh	–	–	–	70.85
